Molecules are shown by their SMILES.

Data set [1] deals with rat cornea wound. The data set is described as follows: cornea wound electric current and ion flux measured with vibrating probe. To be noted: for cornea wound electric signal: 10 mM. The method, then:
In order to understand corneal wound healing, the spatiotemporal dynamics of rat cornea wound electric currents and ion flux using a vibrating probe were characterized. In particular, measurements of deeper wounds of approximately 100 microns in depth, penetrating the stroma, were analyzed. For both shallow and deep wounds, electric current and ion flux were maximized at the wound edge, minimized at the wound center, and reduced to normal (unwounded) values at a small distance outside the wound. Wound electric current was outward (i.e., outward transient outward flux of potassium which diminished rapidly and therefore appeared to be leakage). Small fluxes of calcium and sodium were also observed. The main ion flux appeared to be a large influx of chloride ions at the wound edge. Time lapse measurements of electric current in the hours after wounding indicate that the wound electric signal was long-lasting and appears to be actively-regulated. The wound electric signal increased rapidly until approximately 40 minutes after wounding and was maintained at a high level for several hours. FIGS. 9 and 10 show time lapse data for both a shallow (normal epithelial) wound and a deep (stromal) wound. In this regard, electric signals for a shallow depth wound and a deep wound were compared.
Furthermore, the epithelial wounds were manually made using a biopsy punch. To replicate a more traumatic cornea wound that penetrates both the epithelium and stroma, a Nidek EC-5000 excimer laser was used. The laser settings to obtain circular wounds were 2 mm in diameter and approximately 100 μm deep. We confirmed wound depth using optical coherence tomography (OCT). […] The laser application was performed by first chilling eyes in a saline ice bath prior to wounding, and then applying the laser in 10 second bursts, with 5 second rest in between to minimize laser damage outside the wound. […]
Wounds 3.5 mm in diameter that normally took 48 hours or more to completely heal were healed in 30 hours in the presence of these therapeutics. To ensure that the aminophylline has the same effect on deep wounds as shallow epithelial wounds, wound electric fields were measured using the vibrating probe with and without the presence of 1 and 10 mM aminophylline. […]
The effects of two distinct rehydrated collagen membranes (with a nominal thickness of 100 μm) on cornea wound electric signal were characterized. […] As the probe was moved away from the source of electric signal, the current detected fell exponentially.
The effect of physical presence of collagen membrane and probe distance from wound edge on the electric signal was tested. The probe was placed in measuring position as close as possible to the wound edge with the collagen membrane, and the electric signal was recorded. […]

Data set [2] deals with rat cornea wound. The data set is described as follows: cornea wound healing in the presence of therapeutics. To be noted: for time to heal: wounds 3.5 mm in diameter that normally took 48 hours or more. The method, then:
Furthermore, the epithelial wounds were manually made using a biopsy punch. To replicate a more traumatic cornea wound that penetrates both the epithelium and stroma, a Nidek EC-5000 excimer laser was used. The laser settings to obtain circular wounds were 2 mm in diameter and approximately 100 μm deep. We confirmed wound depth using optical coherence tomography (OCT). […] The laser application was performed by first chilling eyes in a saline ice bath prior to wounding, and then applying the laser in 10 second bursts, with 5 second rest in between to minimize laser damage outside the wound. […] The dynamic time course of the electric signal change in the hours after wounding was also similar to that of shallower wounds (see FIG. 9). Normal epithelial wounds 2 mm in diameter heal almost completely in 48 hours. Deep laser wounds took longer to heal than shallow epithelial wounds, but did heal 100% by day 8 (see FIG. 10).
Wounds 3.5 mm in diameter that normally took 48 hours or more to completely heal were healed in 30 hours in the presence of these therapeutics. To ensure that the aminophylline has the same effect on deep wounds as shallow epithelial wounds, wound electric fields were measured using the vibrating probe with and without the presence of 1 and 10 mM aminophylline. FIG. 11 illustrates the presence of aminophylline in the wound.
FIG. 12 illustrates wound healing of a deep wound (100 μm) without and with the presence of 1 mM aminophylline as function of time. In this regard, at 500, deep wound healing with and without the presence of aminophylline are shown. At 520, an OCT image of the control wound is shown. At 540, an OCT image with the presence of aminophylline in the wound is shown.
Furthermore, FIG. 13 illustrates the percentage of wound healing as a function of time for corneas treated with the bioelectric modulator aminophylline (1 mM).

For data set [3] the following is noted: cited from earlier work.

For `Cn1c(=O)c2[nH]cnc2n(C)c1=O` [aminophylline], in the data set on rat cornea wound [1], the “chloride flux at the wound” value was “significantly increases” and the “cornea wound electric signal” value was “significantly increase”. Moreover, the wound electric field entry in the data set with rat cornea wound [1] (deep wounds, 1 and 10 mM, FIG. 11) is listed as “increase in the wound electric field”. Moreover, in the data set with rat cornea wound [2], the cornea wound healing result is on record as “significantly enhanced” and the time to heal turned out to be 30 h. In addition, in the data set on rat cornea wound [2] (deep wound 100 μm, 1 mM, FIG. 12), the “wound healing of a deep wound (OCT)” value is recorded as “faster than a control”. The “log partition (log P) coefficient value” in data set [3] is −3.03.

Turning to `O=C1O[C@H]([C@@H](O)CO)C(O)=C1O` [ascorbic acid], the “cornea wound electric signal” value with rat cornea wound [1] was “significantly increase”. In the data set on rat cornea wound [2], the cornea wound healing entry was “significantly enhanced” and the time to heal turned out to be 30 h.

The values are drawn from patent US20190201578A1, “Biomaterial Implant” (The Johns Hopkins University, priority 2017, published 2019).
